# Measured values: patent US20030152953A1, “Polynucleotide encoding a novel human potassium channel alpha-subunit, K+alphaM2” (priority 2001, published 2003)
# Read-outs that look alike come from different tables or passages of the source.
# Assays:
# Kv2.2 = biological target: T1, Kv2.2 (UniProt Q92953); conditions: cited from earlier work; for IC50: read-out: IC50, inhibition of Kv2.2 current
# T1 sequence (Q92953 1-911): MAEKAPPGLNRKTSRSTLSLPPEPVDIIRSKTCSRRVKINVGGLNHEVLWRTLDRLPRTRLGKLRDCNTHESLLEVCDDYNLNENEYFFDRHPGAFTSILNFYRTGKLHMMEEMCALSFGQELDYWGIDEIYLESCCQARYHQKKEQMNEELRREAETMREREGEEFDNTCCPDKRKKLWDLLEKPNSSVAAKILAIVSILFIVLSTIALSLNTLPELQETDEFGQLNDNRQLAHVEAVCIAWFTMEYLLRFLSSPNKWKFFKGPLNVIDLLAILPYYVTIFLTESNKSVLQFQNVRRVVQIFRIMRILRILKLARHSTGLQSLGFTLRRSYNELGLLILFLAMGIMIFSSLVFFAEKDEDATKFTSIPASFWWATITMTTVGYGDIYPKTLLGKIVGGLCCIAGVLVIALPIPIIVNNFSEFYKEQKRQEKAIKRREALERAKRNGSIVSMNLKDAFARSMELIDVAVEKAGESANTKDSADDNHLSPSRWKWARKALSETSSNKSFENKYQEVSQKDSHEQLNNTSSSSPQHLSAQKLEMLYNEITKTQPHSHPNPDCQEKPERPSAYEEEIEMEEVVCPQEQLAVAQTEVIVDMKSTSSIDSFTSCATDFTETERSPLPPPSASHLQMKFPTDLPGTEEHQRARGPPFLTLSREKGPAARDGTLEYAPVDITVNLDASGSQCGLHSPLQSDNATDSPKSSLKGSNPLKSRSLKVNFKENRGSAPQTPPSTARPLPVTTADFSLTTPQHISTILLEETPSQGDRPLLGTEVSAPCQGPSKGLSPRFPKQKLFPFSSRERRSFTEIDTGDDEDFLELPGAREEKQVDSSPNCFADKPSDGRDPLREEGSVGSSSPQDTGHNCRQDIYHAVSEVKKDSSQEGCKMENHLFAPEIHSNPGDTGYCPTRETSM
# [1] = tested on: slow component of the delayed rectifier current in native colonic myocytes; conditions: 1 microM; cited from earlier work
# Kv2.1 = Kv2.1 alone; cited from earlier work
# Kv2.1/Kv9.1 = conditions: cited from earlier work
# Human lung fibroblasts = experiment: Human lung fibroblast growth, Alamar Blue; assay type: cell-based; conditions: 3 days in basal medium
# Protocol: Human lung fibroblasts are obtained from Clonetics (San Diego, Calif.) and maintained in growth media from Clonetics. Dermal microvascular endothelial cells are obtained from Cell Applications (San Diego, Calif.). For proliferation assays, the human lung fibroblasts and dermal microvascular endothelial cells can be cultured at 5,000 cells/well in a 96-well plate for one day in growth medium. The cells are then incubated for one day in 0.1% BSA basal medium. After replacing the medium with fresh 0.1% BSA medium, the cells are incubated with the test proteins for 3 days. Alamar Blue (Alamar Biosciences, Sacramento, Calif.) is added to each well to a final concentration of 10%. The cells are incubated for 4 hr. Cell viability is measured by reading in a CytoFluor fluorescence reader. For the PGE2 assays, the human lung fibroblasts are cultured at 5,000 cells/well in a 96-well plate for one day. […]
# [2] = tested on: cortical or hippocampal neurons; conditions: in vitro; cited from earlier work
# [3] = tested on: nigral dopaminergic neurons; conditions: tissue culture paradigms; cited from earlier work
# [4] = tested on: nigral dopaminergic neurons; conditions: gel foam implants in the striatum; cited from earlier work
# [5] = Xenopus oocytes injected with Kv2.2 mRNA
molecule,measurement,setting,value
charybdotoxin,sensitivity of Kv2.2 current,Kv2.2; [5],insensitive
C=C[C@H]1C[N@@]2CC[C@H]1C[C@H]2[C@H](O)c1ccnc2ccc(OC)cc12 [quinine],IC50,Kv2.2; [5],13.7 µM
same,block of delayed rectifier current,[1],preferentially block the slow component of the delayed rectifier current
CC[N+](CC)(CC)CC [tetraethylammonium],IC50,Kv2.2,2600 µM
same,sensitivity of currents to blocker,Kv2.1,sensitive
same,effect on biphasic voltage-dependence of currents,Kv2.1/Kv9.1; 20 mM,eliminate the biphasic voltage-dependence
same,sensitivity of currents to blocker,Kv2.1/Kv9.1; Kv2.1/Kv9.1,sensitive
"FGF-2: FGF-2 (basic FGF), fibroblast growth factor",concentration showing stimulation of fibroblast growth,Human lung fibroblasts,10 to 2500 ng/mL
same,neurite outgrowth,[2],increases
same,neuron survival,[2],increases
same,activity towards nigral dopaminergic neurons,[3],trophic activity
same,protection of nigral dopaminergic neurons from MPTP toxicity,[4],near complete protection
